According to patent publication US10967167B2, “Using alternating electric fields to increase permeability of the blood brain barrier” (priority 2018, dated 2021):

Columns and labels:
rat brain (BBB) [1] = test: Evans Blue accumulation in rat brain after alternating electric fields; assay type: in vivo
Source text: A set of in vivo experiments on rats was also run to quantify the increase in vessel permeability caused by exposure to the alternating electric fields. These experiments used Evans Blue (EB) dye, which is an azo dye that has a very high affinity for serum albumin (molecule size ˜69 kDa). Because of its large molecule size, serum albumin will ordinarily not be able to get past the BBB.
This was accomplished by shaving each rat's head, positioning a first pair of capacitively coupled electrodes on the top and bottom of the rat's head, and positioning a second pair of capacitively coupled electrodes on the left and right sides of the rat's head. A 100 kHz AC voltage was then applied between the top and bottom electrodes for 1 second, followed by a 100 kHz AC voltage applied between the right and left electrodes for 1 second, in a repeating sequence.
Under the conditions indicated in Table 1 and for the times indicated on Table 1, EB was injected intravenously into the tail vein under anesthesia (Once injected, EB immediately binds to Albumin), and the EB was allowed to circulate for 2 hours in all cases. The following steps were then performed: (a) intracardiac perfusion with saline; (b) brains are sliced in four pieces with a brain slicer; (c) pieces were photographed to localize staining and weighted; (d) EB extraction after tissue homogenization with TCA 50% (1:3) and centrifuge and (e) EB quantification at 610 nm. Results are given as μg EB per g tissue.
During the experiment, two animals from group 2 and one animal from group 4 were excluded (disrupted treatment, failure to inject EB into the tail vein). There were no differences between the animals treated with alternating electric fields (groups 1 and 2) and therefore these animals were grouped together. Similarly, there were no differences between sham heat and control animals (groups 3 and 4) and therefore these animals were grouped together.
EB accumulation in these four specific sections was then measured. In addition, a computer simulation was performed to determine the field strength in each of these four sections. […]

rat brain (BBB) [2] = test: Dynamic Contrast Enhanced MRI (DCE-MRI) of rat brain; assay type: in vivo
Method: Yet another set of in vivo experiments was performed using Dynamic Contrast Enhanced MRI (DCE-MRI) with intravenous injection of Gadolinium contrast agent (Gd-DTPA, Magnetol, MW 547). In these experiments, test rats were treated with 100 kHz alternating electric fields for 72 h, and control rats were not treated with alternating electric fields for the same period of time. After this 72 h period, the alternating electric field was turned off, the rats were anesthetized, and a series of 60 T1w MRI scans (each of the scans having a duration of 28 seconds) was acquired. The gadolinium contrast agent was injected into the rat's tail vein during the 7th of these 60 scans.
The image analysis for each rat included (1) determining a baseline for each voxel by calculating the mean of the first six T1w MRI scans for each voxel (i.e., the scans prior to the injection of the gadolinium); (2) computing voxel by voxel, the percent signal change (i.e., gadolinium accumulation) over time relative to the baseline; (3) segmenting the brain into anterior, middle, and posterior segments; (4) generating for each of the three segments the mean percent signal change with respect to the baseline over all the voxels in the respective segment and then (5) averaging 4 consecutive time points (i.e. 4 scans) together. Finally, the data from all of the rats within any given group were averaged together. […]

Cc1cc(-c2ccc(/N=N/c3ccc4c(S(=O)(=O)O)cc(S(=O)(=O)O)c(N)c4c3O)c(C)c2)ccc1/N=N/c1ccc2c(S(=O)(=O)O)cc(S(=O)(=O)O)c(N)c2c1O [EB, Evans Blue] was tested, and the “average EB accumulation in the rat brain, averaged over all four sections 1-4” value (rat brain (BBB) [1]; 100 kHz fields 72 h vs control, p<0.05) was “higher accumulation”, the “EB accumulation in brain sections 1, 2 (frontal cerebrum)” value (rat brain (BBB) [1]; 100 kHz fields 72 h vs sham heat/control, EB i.v., 2 h circulation, highest field strength) was “statistically significant increase” and the “EB accumulation in posterior brain sections (3, 4)” value (rat brain (BBB) [1]; 100 kHz fields 72 h vs sham heat/control, EB i.v., 2 h circulation, lower field strength) was “smaller increase (that was not statistically significant)”.

O=C([O-])CN(CCN(CC(=O)[O-])CC(=O)O)CCN(CC(=O)[O-])CC(=O)O.[Gd+3] [contrast agent, Gd-DTPA] was tested, and the “contrast agent accumulation in the brain tissue (percent signal change)” value (rat brain (BBB) [2]; 100 kHz fields 72 h (n=6) vs control rats (n=3), i.v.) was “significantly higher” and the “contrast agent accumulation in the brain tissue (percent signal change)” value (rat brain (BBB) [2]; 100 kHz fields 72 h followed by 96 hours without fields (n=7) vs control+96 h (n=3)) was “not significantly different”.
